This note sets out measurements from patent US20250002526A1, “PHARMACEUTICAL COMPOSITION HAVING ANTI-CANCER IMMUNOSTIMULATING EFFECT AND/OR IMMUNE CHECKPOINT INHIBITION POTENTIATING EFFECT” (KYUSHU UNIVERSITY, NATIONAL UNIVERSITY CORPORATION, priority 2021, published 2025).

For orientation: IC50 means the concentration that inhibits the measured activity by half.

Assay [1] deals with T1, recombinant human SULT2B1b protein (Homo sapiens, UniProt O00204).
T1 sequence (O00204 1-365): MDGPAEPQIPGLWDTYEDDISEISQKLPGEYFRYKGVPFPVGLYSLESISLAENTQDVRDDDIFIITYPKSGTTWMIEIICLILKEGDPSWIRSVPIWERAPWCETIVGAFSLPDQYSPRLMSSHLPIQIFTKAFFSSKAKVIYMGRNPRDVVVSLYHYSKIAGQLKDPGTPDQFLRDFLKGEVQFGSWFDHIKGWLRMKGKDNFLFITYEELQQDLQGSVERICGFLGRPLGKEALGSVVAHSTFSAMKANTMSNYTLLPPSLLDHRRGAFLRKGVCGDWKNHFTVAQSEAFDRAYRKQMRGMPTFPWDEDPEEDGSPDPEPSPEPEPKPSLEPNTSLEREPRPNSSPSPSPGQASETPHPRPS
The assay can be described thus: SULT assay (in vitro SULT2B1b enzymatic activity measurement). The assay is classed as biochemical. The settings on record: for activity at 200 µM: read-out: in vitro SULT2B1b assay % activity at 200 μM. The procedure:
For screening for a SULT2B1b inhibitor, enzymatic activity measurement for SULT2B1b was carried out by a method described in a previous report (NPL 2) with slight modifications.
The reaction solution (50 μl) was composed of 1 to 5 μg of recombinant human SULT2B1b protein, 10 μM [^3H]cholesterol (approximately 4,000 dpm/pmol), 10 mM Tris-HCl (pH 7.5, containing 5 mM MgCl2) containing 0.1 mM 3′-phosphoadenosine 5′-phosphosulfate (PAPS), 0.2 mM 2-hydroxypropyl-β-cyclodextrin, and 5% (v/v) ethanol. Recombinant human SULT2B1b protein was pre-incubated with 1 μl of a test compound (final concentration: 40 or 200 μM) or DMSO (control) at room temperature for 15 minutes, 2 mM PAPS (2.5 μl) was then added to initiate reaction, the resultant was reacted at 37° C. for 15 minutes, and 0.8 ml of ethanol was added to terminate the reaction.
The solution after the reaction was subjected to thin-layer chromatography (TLC) for separation, and then to a liquid scintillation counter to quantify radiolabeled CS.
From the percentage to the amount ([…]) of radiolabeled CS generated through reaction in the absence of the test compound (DMSO) (control), the SULT2B1b activity (% activity) of SULT2B1b protein in the presence of the test compound was evaluated, and the effect of the test compound to inhibit SULT2B1b-mediated CS production (CS production inhibitory effect) was evaluated.
In enzyme assay, SULT assay was performed with use of cholenoic acid as a compound to be tested at different cholesterol and PAPS concentrations (wherein 0.5 to 1 μg of recombinant human SULT2B1b protein was used, the preincubation time and reaction time were each 10 minutes), and the results were fitted to the Michaelis-Menten equation by using Prism 9 (GraphPad Software, Inc.) to perform enzyme kinetic analysis for the inhibition by cholenoic acid.
SULT assay was performed for the compounds as test compounds by the method described in (14) of “II. Experimental procedure” in Experiment Example 1 to evaluate the SULT2B1b inhibitory effects of the compounds.

The subject of assay [2] is SULT2B1b-mediated CS production in E0771-SULT cells. The assay can be described thus: CS production inhibitory effect in E0771-SULT cells (LC/MS/MS quantification of CS). Format: cell-based, mouse. The settings on record: Mus musculus; for activity at 10 µM / activity at 20 µM: 24 h; for activity at 10 µM: relative to control (100%); for activity at 20 µM: relative to control without compound (100%); for IC50: read-out: IC50 value (CS production). The procedure: CS in each human cancer tissue sample was quantified by a method described in NPL 2. To monitor the amounts of CS and/or oxysterol generated in E0771, 3LL, EG.7-OVA, and MC38 cells irrespective of the presence or absence of SULT2B1b expression, cells of each type were seeded in a 6-well plate at 5×10^5 cells/well, and the culture supernatant and cell pellet were collected after 24 hours. Subsequently, deuterium-labeled internal standard (IS) compounds (d7-CS [[…]] and d6-25-hydroxycholesterol) were added to fractions of the culture supernatant and cell pellet, each of which was subjected to extraction with 1 mL of extraction solvent (methanol/chloroform/water=5:2:2 [v/v/v]) to extract CS and oxysterol from the culture supernatant or cell pellet.
Each sample was vigorously mixed with a vortex for 1 minute, and then ultrasonicated for 5 minutes. Thereafter, the sample was centrifuged at 16,000×g and 4° C. for 5 minutes, and the supernatant (700 μl) was collected in a clean tube. Into this, 235 μl of chloroform and 155 μl of water were added and mixed, and the resultant was then subjected to vortexing followed by centrifugation to separate into an aqueous layer and an organic layer. Subsequently, 200 μl of the lowermost layer was dried under a nitrogen flow.
The dried sample was dissolved in 50 μl of methanol, and CS and oxysterol therein were quantified by liquid chromatography-tandem mass spectrometry (LC/MS/MS) with a triple quadrupole mass spectrometer (LCMS-8060; Shimadzu Corporation) equipped with an electrospray ionization (ESI) ion source in a multiple reaction monitoring (MRM) mode.
• Column: Inertsil ODS-4 (2.1×150 mm; particle size: 3 μm; GL Sciences Inc.) • Column temperature: 40° C. • Flow rate: 0.3 ml/min • Mobile phase: (A) water/acetonitrile (1:2, v/v) containing 5 mM ammonium acetate (B) Methanol/Isopropanol (1:19, v/v) Containing 5 mM Ammonium Acetate • Gradient curve: 0 min→22 min: (B) 0%→100%, • 22 min→27 min: (B) 100%, • 27 min→27.1 min: (B) 100%→0%, • 27.1 min→30 min: (B) 0% • Injection volume: 5 μl • Mass spectrometry mode: positive and negative ion modes • Electrospray voltage: 4 kV in positive ion mode, −3.5 kV in negative ion mode • Nebulizer gas flow rate: 3.0 L/min • Drying gas flow rate: 10.0 L/min • Desolvation temperature: 250° C. • Heat block temperature: 400° C. • Detector voltage: 2.16 kV • Used were MRM mode and 2 msec of dwell time per channel.
Absolute CS and oxysterol contents were calculated from calibration curves. MRM calibration curves were prepared with chromatographic peak areas for the analytes relative to peak areas for internal standards through three times of analysis for standard solutions.
The CS production effects of test compounds (compounds 1 to 19, 21, 23, 25, and 27 to 32) were evaluated with the mouse breast cancer cell line E0771 expressing SULT2B1b (E0771-SULT cells).
Specifically, as in the above description in experimental procedure (12), E0771-SULT cells were seeded in a 6-well plate at a proportion of 5×10^5 cells/well, and cultured in the presence or absence (control) of each test compound for 24 hours. After culturing, CS generated in E0771-SULT cells was quantified by LC/MS/MS according to the description in experimental procedure (12). The CS production capacity (% activity) of cells cultured in the presence of each test compound was evaluated from the percentage relative to the CS production level (control) (100%) in E0771-SULT cells cultured in the absence of the test compound, and the CS production inhibitory effect of the test compound was evaluated.

[3] abbreviates: read-out: CS production % activity at 10 μM, E0771-SULT cells, 24 hours, test compound 10 μM (Table 1).
Setting [4] is: read-out: CS production % activity at 10 μM, E0771-SULT cells, 24 hours, third concentration column of Table 1, head again printed 10 μM.
Setting [5] is: read-out: CS production % activity at 20 μM, E0771-SULT cells, 24 hours, test compound 20 μM.

Each structure is given as a SMILES string. Read-outs that look alike come from different tables or passages of the source.

In the case of `COC(=O)CC[C@@H](C)[C@H]1CC[C@H]2[C@@H]3CC=C4C[C@@H](OC(=O)C(F)(F)F)CC[C@]4(C)[C@H]3CC[C@]12C` [Compound 4, methyl (R)-4-((3S,8S,9S,10R,13R,14S,17R)-10,13-dimethyl-3-(2,2,2-trifluoroacetoxy)-2,3,4,7,8,9,10,11,12,13,14,15,16,17-tetradecahydro-1H-cyclopenta[a]phenanthren-17-yl)pentanoate], in assay [1], the activity at 200 µM was determined as 13.6%. Further, the activity at 10 µM in assay [2] (E0771-SULT cells, 24 hours, test compound 10 μM (Table 1), read-out: CS production % activity at 10 μM) stood at 79.2%; in assay [2] (E0771-SULT cells, 24 hours, third concentration column of Table 1, head again printed 10 μM, read-out: CS production % activity at 10 μM) it was 104%. The activity at 20 µM in assay [2] (E0771-SULT cells, 24 hours, test compound 20 μM, read-out: CS production % activity at 20 μM) turned out to be 49.9%. For the same compound, in assay [2] (E0771-SULT cells), the IC50 was 20 µM.

Regarding `COC(=O)CC[C@@H](C)[C@H]1CC[C@H]2[C@@H]3CC=C4C[C@@H](O)CC[C@]4(C)[C@H]3CC[C@]12C` [Compound 3, methyl (R)-4-((3S,8S,9S,10R,13R,14S,17R)-3-hydroxy-10,13-dimethyl-2,3,4,7,8,9,10,11,12,13,14,15,16,17-tetradecahydro-1H-cyclopenta[a]phenanthren-17-yl)pentanoate], the activity at 200 µM in assay [1] worked out at 19%. The activity at 10 µM in assay [2] (setting [3]) stood at 48.1%; in assay [2] (setting [4]), 61.4%. Further, the activity at 20 µM in assay [2] (setting [5]) was 56.8%. Also, in assay [2], the IC50 worked out at 17.3 µM.

Turning to `CC(=O)OC1CCC2(C)C(=CCC3C2CCC2(C)C(C(C)CCC(=O)O)CCC32)C1` (stereo not shown) [Compound 17, 3-acetoxy-5-cholenoic acid], the IC50 in assay [1] (recombinant human SULT2B1b, read-out: IC50 value (enzyme assay)) stood at 186 µM; in assay [2], 7 µM. In addition, the activity at 200 µM in assay [1] (test compound 200 μM, relative to DMSO control (100%)) was 66.4%. Moreover, the values for the activity at 10 µM in assay [2] (setting [3]) and in assay [2] (setting [4]) were 43.7% and 44.9%, respectively. For the same compound, the activity at 20 µM in assay [2] (setting [5]) stood at 52.4%.
